# Laboratory results taken from patent publication US20220370322A1, “UV BLOCKING COMPOSITION COMPRISING RED ALGAE-DERIVED FLORIDOSIDE AND AMINE GROUP-CONTAINING COMPOUND” (ATHENA CO., LTD., priority 2019, published 2022).
# “And” between values parts separate entries of the source, which are not always exact repeats. Equal entries are not always repeated.
# How the values were obtained:
# Raw 264.7 cells = assay: Cytotoxicity test (Cell Counting Kit-8); type: cell-based; conditions: for Viability (%): 24 hours, CCK-8; for Absorbance AVERAGE: absorbance at 450 nm, mean of three; for Absorbance: single replicates, measured at 450 nm
# Experimental: A cytotoxicity test was performed on the sample, which had been identified to be floridoside, by using the Cell Counting Kit-8 kit (DOJINDO, CK04-05).
# Raw 264.7 cells were cultured at 1×10^4 cells/well in a DMEM medium containing 10% FBS in a 96-well plate at 37° C. in 5% CO2 incubator for 24 hours, and then treated with a drug. After the cells were cultured at 37° C. in the 5% CO2 incubator for 24 hours, CCK-8 solution was added, followed by incubation at 37° C. for 2 hours, and then the absorbance was measured at 450 nm.
# skin = assay: Primary patch test for human body application (skin irritation, ICDRG criteria); type: in vivo; design: key to Mean score of the skin reaction: mean of ICDRG-graded reactions via skin reaction formula; conditions: 31 subjects
# Experimental: A primary patch test for human body application was performed on the sample.
# Subjects of the test were determined for skin irritation by a dermatologist a total of 4 times (the date of a patch, the date of removal of the patch, and 24 hours and 120 hours after removal of the patch) during the test period.
# The skin patch test was performed using the Van der Bend chamber (Van der Bend, Brielle, the Netherlands). For each of 31 subjects, the sample was applied between the shoulder blade and the waist line on the basis of the spin on the back by using the Van der Bend chamber.
# A site of the test was washed with distilled water and dried, and then the sample was dissolved in 10% distilled water. Thereafter, 35 μl was dropped in the Van der Bend chamber, which was then put and fixed on the site of the test. The sample was patched on the skin for 48 hours, and after the removal of the patch, the site of the test was marked with a marking pen, and the site of the test was observed after 30 minutes, 24 hours, and 120 hours.
# With respect to the skin reaction, the degrees of irritation were classified according to the evaluation criteria of the International Contact Dermatitis Research Group (ICDRG) as shown in Table 2 below.
# The mean score of the skin reaction was calculated by the skin reaction calculation formula, and then the presence or absence of irritation was determined according to the decision table of the skin patch test.
compound,measurement,setting,value
"OCC(CO)O[C@H]1O[C@H](CO)[C@H](O)[C@H](O)[C@H]1O [Floridoside, 2-O-α-D-galactopyranosylglycerol]",Viability (%),"Raw 264.7 cells; 1 ppm, Raw 264.7 cells",83%
same,Absorbance AVERAGE,Raw 264.7 cells; 1 ppm,2.594
same,Absorbance,Raw 264.7 cells; 1 ppm,2.73 and 2.59 and 2.47
same,Viability (%),"Raw 264.7 cells; 10 ppm, Raw 264.7 cells",88%
same,Absorbance AVERAGE,Raw 264.7 cells; 10 ppm,2.746
same,Absorbance,Raw 264.7 cells; 10 ppm,2.69 and 2.73 and 2.81
same,Viability (%),"Raw 264.7 cells; 100 ppm, Raw 264.7 cells",88%
same,Absorbance AVERAGE,Raw 264.7 cells; 100 ppm,2.759
same,Absorbance,Raw 264.7 cells; 100 ppm,2.68 and 2.79 and 2.81
same,Viability (%),"Raw 264.7 cells; 500 ppm, Raw 264.7 cells",89%
same,Absorbance AVERAGE,Raw 264.7 cells; 500 ppm,2.790
same,Absorbance,Raw 264.7 cells; 500 ppm,2.72 and 2.8 and 2.85
same,Viability (%),"Raw 264.7 cells; 1000 ppm, Raw 264.7 cells",89%
same,Absorbance AVERAGE,Raw 264.7 cells; 1000 ppm,2.781
same,Absorbance,Raw 264.7 cells; 1000 ppm,2.75 and 2.77 and 2.82
same,Cell protective effect,"Raw 264.7 cells; Raw 264.7 cells, 1-1000 ppm, conclusion in words",excellent cell protective effect
same,Determination (skin patch test),skin; decision table of the skin patch test,No irritation
same,Mean score of the skin reaction,skin; skin reaction calculation formula,0.00
same,"Degree of reaction + (first line), number of subjects",skin; After 30 minutes,0
same,"Degree of reaction + (second line), number of subjects",skin; After 30 minutes,0
same,"Degree of reaction +++, number of subjects",skin; After 30 minutes,0
same,"Degree of reaction ++, number of subjects",skin; After 30 minutes,0
same,"Degree of reaction + (first line), number of subjects",skin; After 24 hours,0
same,"Degree of reaction + (second line), number of subjects",skin; After 24 hours,0
same,"Degree of reaction +++, number of subjects",skin; After 24 hours,0
same,"Degree of reaction ++, number of subjects",skin; After 24 hours,0
same,"Degree of reaction + (first line), number of subjects",skin; After 120 hours,0
same,"Degree of reaction + (second line), number of subjects",skin; After 120 hours,0
same,"Degree of reaction +++, number of subjects",skin; After 120 hours,0
same,"Degree of reaction ++, number of subjects",skin; After 120 hours,0
